Assay results: PubChem BioAssay (NCI)
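Grown in 96-well plates, cells were treated for 48 hours with each compound at five concentrations. Insufficient inhibition: endpoint recorded as highest concentration tested. The concentration for 50% growth inhibition is given as GI50. TGI is the concentration that stops growth completely.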

What was measured:
Test in all cases: NCI tumour cell line growth inhibition, 48 h
UO-31 renal = tested on: UO-31 renal
OVCAR-5 ovarian = tested on: OVCAR-5 ovarian
MCF7 breast = tested on: MCF7 breast
RPMI-8226 leukemia = tested on: RPMI-8226 leukemia
SF-268 CNS = tested on: SF-268 CNS
NCI-H23 lung = tested on: NCI-H23 lung
TK-10 renal = tested on: TK-10 renal
HL-60(TB) leukemia = tested on: HL-60(TB) leukemia
K-562 leukemia = tested on: K-562 leukemia
IGROV1 ovarian = tested on: IGROV1 ovarian

Structure (SMILES)	GI50 (UO-31 renal) [µM]	TGI (UO-31 renal) [µM]	GI50 (OVCAR-5 ovarian) [µM]	TGI (OVCAR-5 ovarian) [µM]	GI50 (MCF7 breast) [µM]	TGI (MCF7 breast) [µM]	GI50 (RPMI-8226 leukemia) [µM]	TGI (RPMI-8226 leukemia) [µM]	GI50 (SF-268 CNS) [µM]	TGI (SF-268 CNS) [µM]	GI50 (NCI-H23 lung) [µM]	TGI (NCI-H23 lung) [µM]	GI50 (TK-10 renal) [µM]	TGI (TK-10 renal) [µM]	GI50 (HL-60(TB) leukemia) [µM]	TGI (HL-60(TB) leukemia) [µM]	GI50 (K-562 leukemia) [µM]	TGI (K-562 leukemia) [µM]	GI50 (IGROV1 ovarian) [µM]	TGI (IGROV1 ovarian) [µM]
CCOC(=O)c1ccc(NC(=O)NC2=NCCS2)cc1	5.13	> 100	99.1	> 100	0.517	> 100	1.93	> 100	3.5	> 100	3.61	> 100	> 100	> 100	0.503	> 100	10.5	> 100	2.11	> 100
Clc1ccc(/C=C/c2ccc3ccccc3n2)cc1	4.68	> 100	4.36	> 100	0.467	> 100	0.482	18.6	0.641	> 88.3	3.08	> 100	5.24	> 100	0.268	0.828	0.439	> 100	0.716	> 80.8
CC(NC(=O)Cc1ccc(C(F)(F)P(=O)(OCc2ccc([N+](=O)[O-])o2)N(C)CCCCCl)cc1)c1ccc(OCC2CCCCC2)c(C(N)=O)c1 (stereo not given)	7.74	21.9	15.6	33.1	6.53	41.4	1.14	3.86	4.8	15.5	4.11	15.3	8.01	22.2	1.89	4.72	4.5	17.9	9.93	25.5
Cc1cc(NCc2cc(Nc3ccnc4cc(Cl)ccc34)ccc2F)nc(N2CCOCC2)n1	1.3	2.71	2.45	6.97	2.12	6.15	1.81	5.58	3.08	18	2.43	7.28	1.96	3.92	1.77	3.82	1.73	6.18	1.93	5.11
c1ccc(-c2nc3n(c2-c2ccc4c(c2)OCO4)CCC3)nc1	0.611	8.58	5.03	> 25	7.89	> 21.3	9.88	> 25	7.86	> 25	9.59	> 25	1.41	> 23.6	2.56	10.7	5.49	> 25	7.37	> 23.2
C=CC(C)(C)n1cc(C2=C(O)C(=O)C(c3cn(C(C)(C)C=C)c4ccccc34)=C(O)C2=O)c2ccccc21	–	4.27	–	4.45	–	12.4	–	40.2	–	8.15	–	7.83	–	10.9	–	> 31.5	–	> 100	–	7.15
COc1cc(OCc2cccc(-c3ccccc3)c2C)cc(OC)c1CN1CCCCC1C(=O)NCCOCCOCCN (stereo not given)	10.6	22.9	3.73	14.9	1.92	3.92	2.04	5	2.1	5.5	5.22	19.2	2.48	7.42	1.91	4.07	1.86	4.4	3.06	12.1
